Values of other authors in patent US9603852B2, “Treatment of obesity and pulmonary arterial hypertension” (ALBERT EINSTEIN COLLEGE OF MEDICINE, INC., priority 2013, dated 2017).
pIC50: −log10 of the molar value. Like-named read-outs stand apart in the source and are kept apart here.

Target: T1, rat PGT (Rattus norvegicus, UniProt Q00910)
T1 construct: expressed in transfected cells
Conditions: cited from earlier work; for Inh (% of Ctl) 0.05 μM: 0.05 μM compound; for Inh (% of Ctl) 0.05 μM / Inh (% of Ctl) 0.01 μM: second part of Table 1; for Inh (% of Ctl) 0.1 μM: 0.1 μM compound; for Inh (% of Ctl) 0.01 μM: 0.01 μM compound; for Inh (% of Ctl) 2.5 μM: 2.5 μM compound; for Inh (% of Ctl) 0.5 μM: 0.5 μM compound

[1] = second part of Table 1 (Cpd 130-151)

SMILES | Inh (% of Ctl) 0.05 μM | Inh (% of Ctl) 0.1 μM [1] | Inh (% of Ctl) 0.01 μM | other results
O=C(NCCOCCOCCNc1nc(NCCOCCOCCNC(=O)c2ccccc2)nc(Nc2ccc(O)cc2)n1)c1ccccc1 [Compound 151] | 0.7 % of Ctl | 8.4 % of Ctl | – | –
O=C(NCCOCCOCCNc1nc(Nc2ccc(C(=O)NCc3ccc(F)cc3)cc2)nc(Nc2ccc(O)c(F)c2)n1)c1ccccc1 [Compound 143] | 57.8 % of Ctl | 69.5 % of Ctl | 33.7 % of Ctl | –
O=C(NCCOCCNc1nc(Nc2ccc(O)cc2)nc(Nc2ccc(C(=O)NCc3ccccc3)cc2)n1)c1ccc(F)cc1 [Compound 136] | 64.1 % of Ctl | 77.9 % of Ctl | 33.3 % of Ctl | –
O=C(NCCOCCNc1nc(Nc2ccc(O)cc2)nc(Nc2ccc(C(=O)NCc3ccc(F)cc3)cc2)n1)c1ccccc1 [Compound 147] | 70.2 % of Ctl | 79.5 % of Ctl | 44.5 % of Ctl | –
CCCCCCCC(=O)c1ccc(Nc2nc(NCCOCCOCCNC(=O)c3ccccc3)nc(Nc3ccc(O)cc3)n2)cc1 [Compound 76] | – | – | – | Inh (% of Ctl) 2.5 μM: 39.9 % of Ctl
O=C(NCCOCCOCCNc1nc(Nc2ccc(O)cc2)nc(Nc2ccc(C(=O)NCc3cc(F)cc(F)c3)cc2)n1)c1ccccc1 [Compound 130] | 73.2 % of Ctl | 81.7 % of Ctl | 41.6 % of Ctl | –
O=C(NCCOCCOCCNc1nc(Nc2ccc(O)cc2)nc(Nc2ccc(C(=O)NCc3ccc(F)cc3F)cc2)n1)c1ccccc1 [Compound 131] | 47.0 % of Ctl | 74.3 % of Ctl | 22.3 % of Ctl | –
N[C@H](Cc1ccccc1)C(=O)NCCOCCNc1nc(Nc2ccc(O)cc2)nc(Nc2ccc(C(=O)NCc3ccccc3)cc2)n1 [Compound 133] | 12.6 % of Ctl | 19.4 % of Ctl | 4.3 % of Ctl | –
O=C(O)c1cccc(Nc2nc(NCCOCCOCCNC(=O)c3ccccc3)nc(Nc3ccc(C(=O)NCc4ccc(F)cc4)cc3)n2)c1 [Compound 150] | 14.3 % of Ctl | 23.9 % of Ctl | 4.2 % of Ctl | –
O=C(NCc1ccc(F)cc1)c1ccc(Nc2nc(Nc3ccc(O)cc3)nc(Nc3ccc(C(=O)NCc4ccc(F)cc4)cc3)n2)cc1 [Compound 148] | 12.9 % of Ctl | 20.7 % of Ctl | 8.4 % of Ctl | –
O=C(NCc1ccccc1)c1ccc(Nc2nc(NCCOCCNCc3ccccc3)nc(Nc3ccc(O)cc3)n2)cc1 [Compound 141] | 22.0 % of Ctl | 43.5 % of Ctl | 12.7 % of Ctl | –
N[C@@H](C(=O)NCCOCCNc1nc(Nc2ccc(O)cc2)nc(Nc2ccc(C(=O)NCc3ccccc3)cc2)n1)c1ccccc1 [Compound 132] | 22.1 % of Ctl | 32.4 % of Ctl | 15.0 % of Ctl | –
O=C(NCCOCCNc1nc(Nc2ccc(O)cc2)nc(Nc2ccc(C(=O)NCc3ccccc3)cc2)n1)Nc1ccccc1 [Compound 139] | 30.7 % of Ctl | 39.0 % of Ctl | 16.3 % of Ctl | –
O=C(NCc1ccccc1)c1ccc(Nc2nc(NCCOCCNC(=O)c3ccccc3C(F)(F)F)nc(Nc3ccc(O)cc3)n2)cc1 [Compound 134] | 27.7 % of Ctl | 46.7 % of Ctl | 14.0 % of Ctl | –
O=C(NCc1ccc(F)cc1)c1ccc(Nc2nc(Nc3ccc(O)cc3)nc(Nc3ccc(O)cc3)n2)cc1 [Compound 145] | 3.1 % of Ctl | 6.9 % of Ctl | 7.1 % of Ctl | –
O=C(NCc1ccc(F)cc1)c1ccc(Nc2nc(Nc3ccc(O)cc3)nc(Nc3ccc(CNCc4ccccc4)cc3)n2)cc1 [Compound 149] | 9.1 % of Ctl | 17.6 % of Ctl | 3.8 % of Ctl | –
O=C(NCCOCCOCCNc1nc(Nc2ccc(O)cc2)nc(Nc2ccc(C(=O)NCc3ccccc3)cc2)n1)c1ccccc1 [Compound 116] | – | – | – | Inh (% of Ctl) 0.1 μM (first part of Table 1): 36.4 % of Ctl; Inh (% of Ctl) 0.5 μM (0.5 µM): 59.4 % of Ctl
O=C(NCCOCCOCCNc1nc(Nc2ccc(O)cc2)nc(Oc2ccc(C(=O)NCc3ccccc3)cc2)n1)c1ccccc1 [Compound 83] | – | – | – | Inh (% of Ctl) 0.5 μM: 4.1 % of Ctl; Inh (% of Ctl) 2.5 μM: 10.4 % of Ctl; Inh (% of Ctl) 5 μM (5 μM compound): 42.0 % of Ctl; pIC50 ([3H]PGE2 uptake, MDCK cells with rat PGT): 6.22
O=C(NCCOCCNc1nc(Nc2ccc(O)cc2)nc(Nc2ccc(C(=O)NCc3ccccc3)cc2)n1)c1ccncc1 [Compound 135] | 28.4 % of Ctl | – | 13.2 % of Ctl | –
O=C(NCCOCCOCCNc1nc(Nc2ccc(C(=O)NCc3ccc(F)cc3)cc2)nc(Nc2ccc3[nH]cnc3c2)n1)c1ccccc1 [Compound 142] | 20.1 % of Ctl | 39.2 % of Ctl | 8.4 % of Ctl | –
COC(=O)c1cc(Nc2nc(NCCOCCOCCNC(=O)c3ccccc3)nc(Nc3ccc(C(=O)NCc4ccc(F)cc4)cc3)n2)ccc1O [Compound 144] | 5.8 % of Ctl | 10.8 % of Ctl | 3.4 % of Ctl | –
CC(=O)NCCOCCNc1nc(Nc2ccc(O)cc2)nc(Nc2ccc(C(=O)NCc3ccccc3)cc2)n1 [Compound 140] | 4.5 % of Ctl | 10.9 % of Ctl | 11.5 % of Ctl | –
COc1ccc(C(=O)NCCOCCNc2nc(Nc3ccc(O)cc3)nc(Nc3ccc(C(=O)NCc4ccccc4)cc3)n2)cc1 [Compound 137] | 64.9 % of Ctl | 75.6 % of Ctl | 42.0 % of Ctl | –
